The source of these data is patent EP0400799A1, “Phenylpyrimidone derivatives” (SMITH KLINE & FRENCH LABORATORIES LIMITED, priority 1989, dated 1990).

In assay [1] the test system is histamine bronchoconstriction. The assay is described as follows: Bronchodilatation in vivo, histamine-induced bronchoconstriction (airway resistance, Konzett-Rossler). Set-up: species or system guinea-pigs of the Dunkin Hartley strain. The following applies: Cavia porcellus, iv; dose reducing histamine bronchoconstriction by 50%; anaesthetised male guinea-pigs; i.v. bolus one minute before histamine challenge; read-out: BD₅₀. As for the experimental part:
A. Male guinea-pigs of the Dunkin Hartley strain (500 - 600 g) were anaesthetised with Sagatal (pentobarbital sodium) (60 mg/kg i.p.). Airway resistance was measured using a modification of the classical Konzett-Rossler technique (J. Pharm. Methods, 13, 309-315, 1985). A dose of histamine which gave approximately 150% increase in airway resistance was selected for i.v. administration. Bolus doses of the compound under test were administered (i.v.) one minute before the histamine challenge and the subsequent peak inhibition of bronchoconstriction recorded.
The dose of compound required to reduce the histamine bronchoconstriction by 50% is given as the BD₅₀.

The subject of the next assay is hindquarter blood flow. Description: Vasodilatation in vivo, perfused hindquarter blood flow. The following applies: Rattus norvegicus, iv; dose producing a 50% increase in hindquarter blood flow; anaesthetised male Wistar rats; bolus i.v.; read-out: EDHQ₅₀. As to the method:
Male Wistar rats (300 g) were anaesthetised with a sodium 5-ethyl-5-(1-methylpropyl)-2-thiobarbiturate/sodium pentobarbitone mixture i.p. (62.5 and 22.5 mg/kg respectively). The trachea was cannulated and the rats breathed spontaneously air enriched with O₂ (5 ml/min). Blood pressure was recorded from a carotid artery and a jugular vein was cannulated for the administration of compounds. The temperature of the animal was maintained at 37°C by the use of an electric blanket. […] The perfusion circuit was primed with 5% bovine serum albumin dissolved in 0.9% sodium chloride solution, pH adjusted to 7.4. Initially the pump rate was set between 10 and 15 ml/min to match the hind quarter perfusion pressure to that of the systemic circulation. Once set, the pressure remained unaltered for the rest of the experiment. A change in the speed of the pump (equivalent to hindquarter blood flow) was used to assess the changes in hindquarter vascular resistance.
All compounds were administered as a bolus i.v. and from the dose response curves the dose required to produce a 50% increase in hindquarter blood flow (EDHQ₅₀) was determined in µmoles/kg.

The subject of assay [2] is U46619-induced bronchoconstriction. Description: Bronchodilatation in vivo, U46619-induced bronchoconstriction (airway resistance, Konzett-Rossler). To be noted: Cavia porcellus, iv; dose reducing U46619-induced bronchoconstriction by 50%; anaesthetised male guinea-pigs; i.v. bolus; U46619 infused i.v. 2.5 nmol/min; read-out: BD₅₀. Set-up: species or system guinea-pigs of the Dunkin Hartley strain. As to the method:
B. Male guinea-pigs of the Dunkin Hartley strain (500 - 600g) were anaesthetised with Sagatal (pentobarbital sodium) (60 mg/kg). Airway resistance was measured using a modification of the classical Konzett-Rossler technique (J. Pharm. Methods, 13, 309-315, 1985). U46619 (9,11-methanoepoxy-PGH₂) was infused i.v. at a rate of 2.5 nmol/min, this produced a steady state of bronchoconstriction (approximately 120% increase from basal airway resistance). The compound under test was administered by i.v. bolus injection, and the subsequent peak inhibition of bronchoconstriction recorded.
The dose of compound required to reduce the U46619-induced bronchoconstriction by 50% is given as the BD₅₀.

Structures are written as SMILES.

Regarding `CCCOc1ccccc1-c1ncc(N)c(=O)[nH]1` [Ex 3, 5-Amino-2-(2-propoxyphenyl)pyrimidin-4(3H)-one], the ED50 in assay [1] is 8.34 µmol/kg; with hindquarter blood flow, 19 µmol/kg.
Turning to `CCCOc1ccccc1-c1nccc(=O)[nH]1` [Ex 5, 2-(2-Propoxyphenyl)pyrimidin-4(3H)-one], the figures for the ED50 (in assay [2]; with hindquarter blood flow) were 3.2 µmol/kg and 22 µmol/kg, respectively.
Turning to `CCCOc1ccccc1-c1ncc(NC(C)=O)c(=O)[nH]1` [Ex 4, 5-Acetamido-2-(2-propoxyphenyl)pyrimidin-4(3H)-one], the ED50 in assay [1] came out at 8.4 µmol/kg; in assay [2], 3.8 µmol/kg; with hindquarter blood flow, 15.8 µmol/kg.
Regarding `CCCOc1ccccc1-c1ncc(C(N)=O)c(=O)[nH]1` [y, 1,6-dihydro-6-oxo-2-(2-propoxyphenyl)pyrimidine-5-carboxamide, reference compound], the ED50 in assay [1] stood at 5.6 µmol/kg; in the assay on hindquarter blood flow it was 23 µmol/kg.
